The values that follow come from ChEMBL document CHEMBL1909046, “DrugMatrix in vitro pharmacology data”.

The structures appear in SMILES notation.

Assay [1] concerns the target T1, Angiotensin-converting enzyme (Oryctolagus cuniculus, UniProt P12822).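 Also: enzymatic inhibition of angiotensin-converting enzyme measured with FAPGG as the substrate; in other assays of this panel Not Active means under 50% inhibition at 10 µM.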
T1 sequence (P12822 whole entry): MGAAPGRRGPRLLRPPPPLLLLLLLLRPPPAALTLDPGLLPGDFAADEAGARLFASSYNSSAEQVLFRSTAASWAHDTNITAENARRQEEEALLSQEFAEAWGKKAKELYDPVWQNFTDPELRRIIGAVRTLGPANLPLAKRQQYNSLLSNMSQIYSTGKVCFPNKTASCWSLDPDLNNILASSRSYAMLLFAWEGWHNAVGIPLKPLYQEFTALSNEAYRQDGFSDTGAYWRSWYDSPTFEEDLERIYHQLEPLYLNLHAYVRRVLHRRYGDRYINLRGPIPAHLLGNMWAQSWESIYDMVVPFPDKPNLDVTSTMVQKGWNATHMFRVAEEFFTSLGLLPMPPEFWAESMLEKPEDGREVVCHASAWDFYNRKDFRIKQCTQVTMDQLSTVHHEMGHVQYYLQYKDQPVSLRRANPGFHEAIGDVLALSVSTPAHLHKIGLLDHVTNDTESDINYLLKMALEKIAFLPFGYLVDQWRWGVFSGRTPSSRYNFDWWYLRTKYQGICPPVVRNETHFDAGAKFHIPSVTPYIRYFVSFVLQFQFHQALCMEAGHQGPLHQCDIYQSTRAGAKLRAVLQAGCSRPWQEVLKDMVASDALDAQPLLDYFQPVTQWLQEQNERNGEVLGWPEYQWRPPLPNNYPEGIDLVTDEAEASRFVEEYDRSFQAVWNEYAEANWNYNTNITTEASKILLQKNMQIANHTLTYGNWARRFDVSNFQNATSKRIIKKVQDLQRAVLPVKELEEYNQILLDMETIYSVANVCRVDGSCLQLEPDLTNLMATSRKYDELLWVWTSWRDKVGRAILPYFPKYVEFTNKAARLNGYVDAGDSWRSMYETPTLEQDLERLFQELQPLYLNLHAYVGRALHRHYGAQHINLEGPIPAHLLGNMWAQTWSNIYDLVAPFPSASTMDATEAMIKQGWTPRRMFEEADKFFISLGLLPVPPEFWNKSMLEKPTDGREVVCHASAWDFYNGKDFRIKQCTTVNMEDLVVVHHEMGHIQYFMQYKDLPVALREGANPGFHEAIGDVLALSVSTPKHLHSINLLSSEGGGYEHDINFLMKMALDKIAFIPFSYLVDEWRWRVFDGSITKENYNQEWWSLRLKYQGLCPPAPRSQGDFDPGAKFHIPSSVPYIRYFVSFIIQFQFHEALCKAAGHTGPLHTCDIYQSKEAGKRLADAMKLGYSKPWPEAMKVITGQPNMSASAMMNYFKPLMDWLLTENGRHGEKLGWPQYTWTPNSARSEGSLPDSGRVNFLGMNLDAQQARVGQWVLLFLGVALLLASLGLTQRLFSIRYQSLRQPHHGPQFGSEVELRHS
The assay is classed as tissue-based, Lung.

The target of a further assay is T2, Calcitonin receptor (Homo sapiens, UniProt P30988). Also: in other assays of this panel Not Active means under 50% inhibition at 10 µM.
T2 sequence (P30988 whole entry): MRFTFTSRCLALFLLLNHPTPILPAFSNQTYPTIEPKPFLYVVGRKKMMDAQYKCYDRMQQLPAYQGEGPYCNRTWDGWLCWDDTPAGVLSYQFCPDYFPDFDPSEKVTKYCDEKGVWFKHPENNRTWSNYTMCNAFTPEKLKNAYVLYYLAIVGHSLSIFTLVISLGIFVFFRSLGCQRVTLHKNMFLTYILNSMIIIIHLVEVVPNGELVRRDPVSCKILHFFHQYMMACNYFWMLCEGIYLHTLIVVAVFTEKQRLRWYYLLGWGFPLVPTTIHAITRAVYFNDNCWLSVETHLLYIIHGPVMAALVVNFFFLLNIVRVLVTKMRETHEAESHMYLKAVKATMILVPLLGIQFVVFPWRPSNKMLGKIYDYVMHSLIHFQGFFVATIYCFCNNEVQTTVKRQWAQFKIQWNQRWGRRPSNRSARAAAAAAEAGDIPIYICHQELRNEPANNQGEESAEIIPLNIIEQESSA
The assay is classed as cell membranes, Membrane. The following applies: t47d.

The target of a further assay is T3, Endothelin-1 receptor (Homo sapiens, UniProt P25101). Also: in other assays of this panel Not Active means under 50% inhibition at 10 µM.
T3 sequence (P25101 whole entry): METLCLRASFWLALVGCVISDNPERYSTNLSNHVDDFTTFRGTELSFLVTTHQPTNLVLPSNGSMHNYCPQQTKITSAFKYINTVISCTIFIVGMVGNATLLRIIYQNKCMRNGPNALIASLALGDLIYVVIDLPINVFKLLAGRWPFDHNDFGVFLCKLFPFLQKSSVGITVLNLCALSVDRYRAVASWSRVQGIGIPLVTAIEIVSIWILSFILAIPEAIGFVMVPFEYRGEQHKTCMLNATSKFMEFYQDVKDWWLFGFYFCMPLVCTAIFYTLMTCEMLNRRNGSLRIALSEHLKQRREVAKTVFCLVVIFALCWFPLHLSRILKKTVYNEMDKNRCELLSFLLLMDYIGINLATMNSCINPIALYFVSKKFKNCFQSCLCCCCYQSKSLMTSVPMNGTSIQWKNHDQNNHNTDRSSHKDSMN
Type of assay: cell membranes, CHO-K1, Membrane. The following applies: cho-k1.

Assay [2] in a line: DRUGMATRIX: Glutamate, NMDA, Agonism radioligand binding (ligand: [3H] CGP-39653). The assay is classed as cell membranes, Rattus norvegicus, Wistar, Cerebral cortex, Membrane. The following applies: Not Active = under 50% inhibition at 10 µM.
Assay [3] can be described thus: DRUGMATRIX: Calcium Channel Type L, Phenylalkylamine radioligand binding (ligand: [3H] (-)-Desmethoxyverapamil (D-888)). Type of assay: cell membranes, Rattus norvegicus, Wistar, Brain, Membrane. The settings on record: Not Active = under 50% inhibition at 10 µM.
In assay [4] the target is Aldo-keto reductase family 1 member B1 (Rattus norvegicus, UniProt P07943). The assay can be described thus: biochemical. Type of assay: tissue-based, Lens of camera-type eye.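 Also: inhibition of aldose reductase enzyme activity, measured with DL-glyceraldehyde as the substrate; in other assays of this panel Not Active means under 50% inhibition at 10 µM.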
For the next assay, the target named is T4, D(4) dopamine receptor (Homo sapiens, UniProt P21917).
T4 sequence (P21917 whole entry): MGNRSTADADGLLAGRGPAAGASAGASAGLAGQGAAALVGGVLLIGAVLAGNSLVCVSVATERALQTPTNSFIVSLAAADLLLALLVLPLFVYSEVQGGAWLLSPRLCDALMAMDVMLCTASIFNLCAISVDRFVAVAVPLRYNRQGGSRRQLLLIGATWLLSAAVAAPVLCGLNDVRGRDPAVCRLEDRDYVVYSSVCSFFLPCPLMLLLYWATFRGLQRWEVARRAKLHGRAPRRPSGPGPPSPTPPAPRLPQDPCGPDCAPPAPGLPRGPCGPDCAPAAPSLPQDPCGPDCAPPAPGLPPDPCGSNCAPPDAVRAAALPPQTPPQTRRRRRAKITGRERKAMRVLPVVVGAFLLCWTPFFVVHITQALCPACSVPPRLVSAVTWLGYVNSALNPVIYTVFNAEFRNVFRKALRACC
The assay can be described thus: DRUGMATRIX: Dopamine D4.2 radioligand binding (ligand: [3H] Spiperone). Type of assay: cell membranes, CHO-K1, Membrane. The following applies: cho-k1; Not Active = under 50% inhibition at 10 µM.

Assay [5] can be described thus: DRUGMATRIX: GABAA, Muscimol, Central radioligand binding (ligand: [3H] Muscimol). The settings on record: Not Active = under 50% inhibition at 10 µM. Type of assay: cell membranes, Rattus norvegicus, Wistar, Brain, Membrane.

`CC(CCc1ccc(O)cc1)NCCc1ccc(O)c(O)c1` (stereo not given) [DOBUTAMINE]: the IC50 result (in assay [1]; on Calcitonin receptor; on Endothelin-1 receptor; in assay [2]; in assay [3]; in assay [4]) was “Not Active” each time. Besides, the IC50 entry (at D(4) dopamine receptor; in assay [5]) was “Not Active” throughout. For the same compound, the Ki entry in assay [2], in assay [3] and in assay [5] was “Not Active” each time.
On to `CCn1cc(C(=O)O)c(=O)c2cc(F)c(N3CCNCC3)nc21` [ENOXACIN], for which the IC50 result (in assay [1]; at Calcitonin receptor; against Endothelin-1 receptor; in assay [2]; in assay [3]; in assay [4]) was “Not Active” each time. Besides, the 50% inhibitory concentration (IC50) entry (on D(4) dopamine receptor; in assay [5]) was “Not Active” throughout. For the same compound, the Ki result in assay [2], in assay [3] and in assay [5] was “Not Active” each time.
For `CCC(=O)O[C@H]1[C@H](O[C@@H]2[C@@H](C)[C@H](O[C@H]3C[C@@](C)(OC)[C@@H](O)[C@H](C)O3)[C@@H](C)C(=O)O[C@H](CC)[C@@](C)(O)[C@H](O)[C@@H](C)C(=O)[C@H](C)C[C@@]2(C)O)O[C@H](C)C[C@@H]1N(C)C` [ERYTHROMYCIN PROPIONATE], the IC50 result (in assay [1]; on Calcitonin receptor; against Endothelin-1 receptor; in assay [2]; in assay [3]; in assay [4]) was “Not Active” in each case. In addition, the IC50 entry (at D(4) dopamine receptor; in assay [5]) was “Not Active” in each case. Moreover, the Ki entry in assay [2], in assay [3] and in assay [5] was “Not Active” each time.
On to `C=C(CC)C(=O)c1ccc(OCC(=O)O)c(Cl)c1Cl` [ETHACRYNIC ACID], for which the IC50 (commonly the concentration at which inhibition is half-maximal) is “Not Active” in assay [1]; “Not Active” on Calcitonin receptor; “Not Active” against Endothelin-1 receptor; “Not Active” in assay [2]; “Not Active” in assay [3]; 1.15 µM in assay [4] (read-out: IC50). Also, the IC50 entry (at D(4) dopamine receptor; in assay [5]) was “Not Active” throughout. Further, the Ki result in assay [2], in assay [3] and in assay [5] was “Not Active” in each case.
As for `C#C[C@]1(O)CC[C@H]2[C@@H]3CCc4cc(O)ccc4[C@H]3CC[C@@]21C` [ETHINYL ESTRADIOL], the IC50 result was “Not Active” in assay [1]; “Not Active” at Calcitonin receptor; “Not Active” against Endothelin-1 receptor; “Not Active” in assay [2]; 6.99 µM in assay [3] (read-out: IC50); “Not Active” in assay [4]. Moreover, the IC50 result (on D(4) dopamine receptor; in assay [5]) was “Not Active” each time. The results for the Ki result in assay [2], in assay [3] (read-out: Ki) and in assay [5] were “Not Active”, 6.79 µM and “Not Active”, respectively.
`OCCO` [ETHYLENE GLYCOL]: the IC50 entry (in assay [1]; on Calcitonin receptor; on Endothelin-1 receptor; in assay [2]; in assay [3]; in assay [4]) was “Not Active” each time. Further, the IC50 entry (at D(4) dopamine receptor; in assay [5]) was “Not Active” throughout. The Ki entry in assay [2], in assay [3] and in assay [5] was “Not Active” in each case.
As to `CC(=O)OCC(CCn1cnc2cnc(N)nc21)COC(C)=O` [FAMCICLOVIR], the IC50 entry (in assay [1]; on Calcitonin receptor; against Endothelin-1 receptor; in assay [2]; in assay [3]; in assay [4]) was “Not Active” throughout. In addition, the IC50 result (on D(4) dopamine receptor; in assay [5]) was “Not Active” each time. In addition, the inhibition constant (Ki) entry in assay [2], in assay [3] and in assay [5] was “Not Active” each time.
For `O=C(O)Cc1ccc(-c2ccccc2)cc1` [FELBINAC], the IC50 result (in assay [1]; on Calcitonin receptor; at Endothelin-1 receptor; in assay [2]; in assay [3]; in assay [4]) was “Not Active” each time. Besides, the IC50 entry (at D(4) dopamine receptor; in assay [5]) was “Not Active” throughout. Also, the Ki result in assay [2], in assay [3] and in assay [5] was “Not Active” in each case.
For the compound `CCOC(=O)C1=C(C)NC(C)=C(C(=O)OC)C1c1cccc(Cl)c1Cl` (stereo not given) [FELODIPINE], the IC50 result (in assay [1]; on Calcitonin receptor; at Endothelin-1 receptor; in assay [2]; in assay [3]; in assay [4]) was “Not Active” in each case. Further, the IC50 entry (at D(4) dopamine receptor; in assay [5]) was “Not Active” each time. The Ki result in assay [2], in assay [3] and in assay [5] was “Not Active” in each case.
Consider `CC(C(=O)O)c1ccc(-c2ccccc2)c(F)c1` (stereo not given) [FLURBIPROFEN], for which the IC50 result (in assay [1]; at Calcitonin receptor; at Endothelin-1 receptor; in assay [2]; in assay [3]; in assay [4]) was “Not Active” in each case. Besides, the IC50 result (on D(4) dopamine receptor; in assay [5]) was “Not Active” in each case. For the same compound, the Ki entry in assay [2], in assay [3] and in assay [5] was “Not Active” each time.
